Values belong to the molecule of their own block, whether it stands above or below them.
Assays:
[1] = XBC vs Dipropylene Glycol Methyl Ether (DPM) in acrylic modified epoxy ester based paint: physical and coating properties; conditions: for Specific Gravity: acrylic modified epoxy ester (Epotuf 38-698) based paint; for VOC (Without Water) / Viscosity / Volume Solid % / Weight Solid %: acrylic modified epoxy ester based paint
Description: The properties of XBC4, in comparison to dipropylene glycol methyl ether (DPM), in an acrylic-modified epoxy ester-based paint were determined to be as follows: […]

[2] = VOC (calculated) of water-based paint formulas; assay type: physicochemical; conditions: water-based paints, substituted for propylene glycol
Description: Bis(2-ButoxyEthyl Carbonate) was tested in a number of water-based flat paints, as follows. Water was added to a container and the additives were added. The container was placed under a high speed disperser and mixed under slow speed. Natrosol™ hydroxyethylcellulose was added slowly and allowed to mix for 10 minutes increasing speed as needed. The pigments were then added, slowly increasing speed and water as needed. After the pigments were added, the speed was increased to about 2800 rpms. After 10 to 15 minutes the speed was reduced to about 1000 rpms. The latex was added slowly into the vortex. The rest of the water and other additives (depending on the formulation) were then added and allowed to mix for 5 minutes.
In some tests, bis(2-ButoxyEthyl Carbonate) was substituted for propylene glycol to evaluate its effectiveness in replacing propylene glycol to create a lower VOC and lower toxicity material.

[3] = Physical/chemical properties of XBC4 (GlykoSol)

Specific Gravity [1]: 1.23 g/cm3
VOC (Without Water) [1]: 110 g/L
Viscosity [1]: 90 KU
Volume Solid % [1]: 35.5%
Weight Solid % [1]: 46.9%
Compound: COC(C)COC(C)CO (stereo not drawn) [DPM, dipropylene glycol methyl ether, reference compound]

Compound: CCCCOCCOC(=O)OCCOCCCC [XBC4, bis(2-ButoxyEthyl Carbonate)]
Specific Gravity [1]: 1.23 g/cm3
VOC (Without Water) [1]: 34 g/L
Viscosity [1]: 90 KU
Volume Solid % [1]: 35.5%
Weight Solid % [1]: 46.9%
VOC of paint after replacement of propylene glycol [2]: far lower or zero (0) VOC materials
Auto Ignition Temp [3]: 305 (581° F.) ° C.
Boiling Point [3]: 297 (566.6° F.) ° C.
Butyl Cellosolve Solubility [3]: Soluble
Clarity [3]: Clear
Colour (Alpha, max) [3]: 10 (Clear)
Flashpoint [3]: 146.1 (295° F.) ° C.
Odor [3]: No Odor
Partial Coefficient (Range) [3]: 1.9-3.0
Volatility (%) [3]: 100%
Water Solubility [3]: Not Soluble
Specific Gravity ([3]; @15.5° C.): 0.985
Density ([3]; @ 20° C.): 0.980 (8.22 lbs/gal) g/mL
Solubility in H2O ([3]; @ 25° C.): Partially Soluble
Vapour Pressure ([3]; @ 25° C.): 0.008 mm Hg
Viscosity ([3]; @ 25° C.): 0.60 cP
VOC ([3]; ASTM 313-91): 0 g/L
Vapour Density (Air = 1) ([3]; Air = 1): 0.95
TGA Weight Loss ([3]; Range 115-240°): 99.47%
Evaporation Rate (n-Butyl Acetate = 1) ([3]; n-Butyl Acetate = 1): 0.01

Source: patent US10975016B2, “Solvent compounds for use as glycol ether replacements” (TBF ENVIRONMENTAL TECHNOLOGY INC., priority 2017, dated 2021)
